Reference: the NIST ThermoML archive (doi:10.1016/j.fluid.2013.11.002)
± gives the expanded uncertainty stated by the source.

What was measured:
[1] = refractive index (Na D-line) (dimensionless); xn = mol fraction of the nth substance listed; details: 101 kPa, Liquid, Standard Abbe refractometry
[2] = refractive index (Na D-line) (dimensionless); details: 101.33 kPa, Liquid, Standard Abbe refractometry

Row | refractive index ([1]; 298.15 K, x1 = 0.01) | refractive index ([1]; 298.15 K, x1 = 0.02) | refractive index ([1]; 298.15 K, x1 = 0.03) | refractive index ([1]; 298.15 K, x1 = 0.04) | refractive index ([1]; 298.15 K, x1 = 0.05) | refractive index ([1]; 298.15 K, x1 = 0.06) | refractive index ([1]; 298.15 K, x1 = 1) | refractive index ([1]; 303.15 K, x1 = 0.01) | refractive index ([1]; 303.15 K, x1 = 0.02) | refractive index ([1]; 303.15 K, x1 = 0.03) | refractive index ([1]; 303.15 K, x1 = 0.04) | refractive index ([1]; 303.15 K, x1 = 0.05) | refractive index ([1]; 303.15 K, x1 = 0.06) | refractive index ([1]; 303.15 K, x1 = 1) | refractive index ([2]; 298.15 K) | refractive index ([2]; 303.15 K) | SMILES
1 | 1.3371 ± 0.0005 | 1.3409 ± 0.0005 | 1.3448 ± 0.0005 | 1.348 ± 0.0005 | 1.351 ± 0.0005 | 1.354 ± 0.0005 | 1.4061 ± 0.0006 | 1.3366 ± 0.0005 | 1.3401 ± 0.0005 | 1.3431 ± 0.0005 | 1.347 ± 0.0005 | 1.3496 ± 0.0005 | 1.3521 ± 0.0005 | 1.4041 ± 0.0006 |  |  | C1CCOC1 [tetrahydrofuran] + O
2 |  |  |  |  |  |  |  |  |  |  |  |  |  |  | 1.3331 ± 0.0005 | 1.3326 ± 0.0005 | O [water]
